Article PMC5695136 (Theranostics, 2017)

Experiments:
[1] = First in-human PET/CT imaging; type: in vivo; conditions: mean SUV averaged over right and left side and all patients (three patients)
PSMA+ LNCaP cells = conditions: equal experimental set up; cited from earlier work

O=C([O-])CN(CCN(CC(=O)[O-])Cc1cc(CCC(=O)NCCCCCC(=O)NCCCC[C@H](NC(=O)N[C@@H](CCC(=O)O)C(=O)O)C(=O)O)ccc1[O-])Cc1cc(CCC(=O)O)ccc1[O-].[68Ga+3].[OH3+] [[^68Ga]Ga-PSMA-11]
SUV kidneys [1]: 30.5 | Internalization±SD (PSMA+ LNCaP cells): 9.47±2.56 %IA/10^6 cells
